Earlier results, collected in patent publication US10466244B2, “Methods and materials for identifying therapeutic response in chronic myeloid leukemia” (RAJIV GANDHI CENTRE FOR BIOTECHNOLOGY, priority 2013, dated 2019).

Test system: BCR-ABL
Details: relative to imatinib

Cc1cn(-c2cc(NC(=O)c3ccc(C)c(Nc4nccc(-c5cccnc5)n4)c3)cc(C(F)(F)F)c2)cn1 [Nilotinib, nilotinib]
increased potency compared with imatinib against BCR-ABL: 20- to 30 fold
